System: 454973-116-R2-J3-PDC spheroids, viability, % test/control
Experiment: Anticancer human tumor 454973-116-R2-J3-PDC patient-derived pancreatic carcinoma cell line growth inhibition [GQUAD]
Conditions: spheroids with HUVEC and MSC; for IC50: curve of first compound; for viability, T/C: stronger effect = lower value; active = viability on the fitted dose curve at most 10% of control; inactive = the rest
How it was run: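 Tumor cells were grown as complex spheroids with HUVEC endothelial cells and mesenchymal stem cells as stroma. G-quadruplex stabilizers were combined with targeted agents over half-log dilutions from near the clinical Cmax, or from 10 microM.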

[1] = second compound 0.0316 µM, first compound 0.0316 µM
[2] = second compound 0.0316 µM, first compound 0.1 µM
[3] = second compound 0.0316 µM, first compound 0.316 µM
[4] = second compound 0.0316 µM, first compound 1 µM
[5] = second compound 0.0316 µM, first compound 3.16 µM
[6] = second compound 0.0316 µM, first compound 10 µM
[7] = second compound 0.1 µM, first compound 0.0316 µM
[8] = second compound 0.1 µM, first compound 0.1 µM
[9] = second compound 0.1 µM, first compound 0.316 µM
[10] = second compound 0.1 µM, first compound 1 µM
[11] = second compound 0.1 µM, first compound 3.16 µM
[12] = second compound 0.1 µM, first compound 10 µM
[13] = second compound 0.316 µM, first compound 0.0316 µM
[14] = second compound 0.316 µM, first compound 0.1 µM
[15] = second compound 0.316 µM, first compound 0.316 µM
[16] = second compound 0.316 µM, first compound 1 µM
[17] = second compound 0.316 µM, first compound 3.16 µM
[18] = second compound 0.316 µM, first compound 10 µM
[19] = second compound 1 µM, first compound 0.0316 µM
[20] = second compound 1 µM, first compound 0.1 µM
[21] = second compound 1 µM, first compound 0.316 µM
[22] = second compound 1 µM, first compound 1 µM
[23] = second compound 1 µM, first compound 3.16 µM
[24] = second compound 1 µM, first compound 10 µM
[25] = second compound 3.16 µM, first compound 0.0316 µM
[26] = second compound 3.16 µM, first compound 0.1 µM
[27] = second compound 3.16 µM, first compound 0.316 µM
[28] = second compound 3.16 µM, first compound 1 µM
[29] = second compound 3.16 µM, first compound 3.16 µM
[30] = second compound 3.16 µM, first compound 10 µM
[31] = second compound 10 µM, first compound 0.0316 µM
[32] = second compound 10 µM, first compound 0.1 µM
[33] = second compound 10 µM, first compound 0.316 µM
[34] = second compound 10 µM, first compound 1 µM
[35] = second compound 10 µM, first compound 3.16 µM
[36] = second compound 10 µM, first compound 10 µM
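Note: spheroids exposed to compounds for seven days.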
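Throughout, for viability, T/C: 100% = DMSO vehicle control viability.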

Cc1cccc(N(C)C(=O)C2C(O)CCN2c2nc(C)cc(C(F)(F)F)c2C#N)c1 (stereo not drawn) + Cc1cnc(CNC(=O)c2c(=O)c3ccc(N4CCCN(C)CC4)nc3n3c2sc2ccccc23)cn1
> 10000 nM: IC50 (second compound 0.0316 µM) | IC50 (second compound 0.1 µM) | IC50 (second compound 0.316 µM) | IC50 (second compound 1 µM) | IC50 (second compound 3.16 µM)
inactive: viability, T/C [1] 103% | viability, T/C [2] 96.8% | viability, T/C [3] 107% | viability, T/C [4] 87.5% | viability, T/C [5] 108% | viability, T/C [6] 93.4% | viability, T/C [7] 88.2% | viability, T/C [8] 74.3% | viability, T/C [9] 71.9% | viability, T/C [10] 68.7% | viability, T/C [11] 70.2% | viability, T/C [12] 69.9% | viability, T/C [13] 74.5% | viability, T/C [14] 71.5% | viability, T/C [15] 71.3% | viability, T/C [16] 67.6% | viability, T/C [17] 70.8% | viability, T/C [18] 66.1% | viability, T/C [19] 71.9% | viability, T/C [20] 65.5% | viability, T/C [21] 61.2% | viability, T/C [22] 65.2% | viability, T/C [23] 65% | viability, T/C [24] 70% | viability, T/C [25] 64.2% | viability, T/C [26] 59.4% | viability, T/C [27] 62.1% | viability, T/C [28] 65.3% | viability, T/C [29] 58.2% | viability, T/C [30] 68.4% | viability, T/C [31] 0.75% | viability, T/C [32] 16.9% | viability, T/C [33] 51.1% | viability, T/C [34] 34.8% | viability, T/C [35] 0.59% | viability, T/C [36] 0.31%
< 31.6 nM: IC50 (second compound 10 µM)

Nc1ccn(C2OC(CO)C(O)C2(F)F)c(=O)n1 (stereo not drawn) + CN(C)c1ccc(Nc2c3ccc(NC(=O)CCN4CCCC4)cc3nc3cc(NC(=O)CCN4CCCC4)ccc23)cc1
inactive: viability, T/C [1] 19% | viability, T/C [2] 13.3% | viability, T/C [3] 16.6% | viability, T/C [4] 13.1% | viability, T/C [5] 14.7% | viability, T/C [6] 15.6% | viability, T/C [7] 20.7% | viability, T/C [8] 13.5% | viability, T/C [9] 14.9% | viability, T/C [10] 16.6% | viability, T/C [11] 13.2% | viability, T/C [12] 15.4% | viability, T/C [13] 16.9% | viability, T/C [14] 15.3% | viability, T/C [15] 15.3% | viability, T/C [16] 14.8% | viability, T/C [17] 13.3% | viability, T/C [18] 14.8% | viability, T/C [19] 15.6% | viability, T/C [20] 14.4% | viability, T/C [21] 16.4% | viability, T/C [22] 14% | viability, T/C [23] 14.2% | viability, T/C [24] 15.9% | viability, T/C [25] 18% | viability, T/C [26] 14.7% | viability, T/C [27] 17.4% | viability, T/C [28] 13.3% | viability, T/C [29] 14.6% | viability, T/C [30] 14.7% | viability, T/C [31] 22.8% | viability, T/C [32] 14.2% | viability, T/C [33] 16.9% | viability, T/C [34] 17.6% | viability, T/C [35] 19.7% | viability, T/C [36] 19.8%
< 31.6 nM: IC50 (second compound 0.0316 µM) | IC50 (second compound 0.1 µM) | IC50 (second compound 0.316 µM) | IC50 (second compound 1 µM) | IC50 (second compound 3.16 µM) | IC50 (second compound 10 µM)

C=CCn1c(=O)c2cnc(Nc3ccc(N4CCN(C)CC4)cc3)nc2n1-c1cccc(C(C)(C)O)n1 + CN(C)c1ccc(Nc2c3ccc(NC(=O)CCN4CCCC4)cc3nc3cc(NC(=O)CCN4CCCC4)ccc23)cc1
433 nM: IC50 (second compound 0.0316 µM)
active: viability, T/C [5] 7.05% | viability, T/C [6] 8.82% | viability, T/C [11] 6.15% | viability, T/C [12] 9.87% | viability, T/C [17] 6.5% | viability, T/C [18] 9.33% | viability, T/C [22] 11.3% | viability, T/C [23] 7.68% | viability, T/C [24] 9.81%
350 nM: IC50 (second compound 0.1 µM)
inactive: viability, T/C [1] 109% | viability, T/C [2] 89.4% | viability, T/C [3] 65.3% | viability, T/C [4] 16.2% | viability, T/C [7] 108% | viability, T/C [8] 98.7% | viability, T/C [9] 51.8% | viability, T/C [10] 19.7% | viability, T/C [13] 99.4% | viability, T/C [14] 90.7% | viability, T/C [15] 59.2% | viability, T/C [16] 15.8% | viability, T/C [19] 82.9% | viability, T/C [20] 89.5% | viability, T/C [21] 55.6% | viability, T/C [25] 85.2% | viability, T/C [26] 83.2% | viability, T/C [27] 61.9% | viability, T/C [28] 14.7% | viability, T/C [29] 8.4% | viability, T/C [30] 12.1% | viability, T/C [31] 71.4% | viability, T/C [32] 78.3% | viability, T/C [33] 57.8% | viability, T/C [34] 25.7% | viability, T/C [35] 11.2% | viability, T/C [36] 10.8%
423 nM: IC50 (second compound 3.16 µM)
431 nM: IC50 (second compound 10 µM)
399 nM: IC50 (second compound 0.316 µM)
365 nM: IC50 (second compound 1 µM)

O=C(NO)c1cnc(N2CCN(S(=O)(=O)c3ccc4ccccc4c3)CC2)nc1 + Cc1[nH]c2ccc(F)cc2c1-c1nc2c3cccnc3c3ncccc3c2[nH]1
active: viability, T/C [4] 2.53% | viability, T/C [5] 0.14% | viability, T/C [6] 0.29% | viability, T/C [10] 4.86% | viability, T/C [11] 0.14% | viability, T/C [12] 0.64% | viability, T/C [17] 0.1% | viability, T/C [18] 1.14% | viability, T/C [22] 8.33% | viability, T/C [23] 0.1% | viability, T/C [24] 0.86% | viability, T/C [29] 0.16% | viability, T/C [30] 0.16% | viability, T/C [35] 0.22% | viability, T/C [36] 0.21%
384 nM: IC50 (second compound 0.316 µM)
360 nM: IC50 (second compound 0.1 µM)
221 nM: IC50 (second compound 0.0316 µM)
inactive: viability, T/C [1] 108% | viability, T/C [2] 84.8% | viability, T/C [3] 35.3% | viability, T/C [7] 108% | viability, T/C [8] 104% | viability, T/C [9] 55.7% | viability, T/C [13] 121% | viability, T/C [14] 96.2% | viability, T/C [15] 62.1% | viability, T/C [16] 10% | viability, T/C [19] 89.6% | viability, T/C [20] 92.1% | viability, T/C [21] 73% | viability, T/C [25] 105% | viability, T/C [26] 93.7% | viability, T/C [27] 66.9% | viability, T/C [28] 18.1% | viability, T/C [31] 93.6% | viability, T/C [32] 90.2% | viability, T/C [33] 76.9% | viability, T/C [34] 17.7%
476 nM: IC50 (second compound 1 µM)
533 nM: IC50 (second compound 10 µM)
464 nM: IC50 (second compound 3.16 µM)

From PubChem BioAssay AID2060508 (Molecular Pharmacology Branch, DTP, NCI, 2025)
